According to BindingDB's records for doi:10.1021/jm00096a017 (Kyowa Hakko Kogyo, 1992):

experiment: Compound was tested for its binding affinity at Thromboxane A2/ Prostaglandin H2 receptor by measuring its ability to displace [3H]U-46619 from guinea pig platelets

Structure (SMILES)	Ki
O=C(O)c1ccc2c(c1)/C(=C/Cn1cnc3cc([N+](=O)[O-])ccc31)c1ccccc1CO2	1.8 nM
Cc1cc2ncn(CCC3c4ccccc4COc4ccc(C(=O)O)cc43)c2cc1C (centres undefined)	18 nM
O=C(O)c1ccc2c(c1)/C(=C/Cn1cnc3cc(Cl)ccc31)c1ccccc1CO2	6 nM
O=C(O)c1ccc2c(c1)/C(=C/Cn1cnc3cc(C(F)(F)F)ccc31)c1ccccc1CO2	2.2 nM
O=C(O)c1ccc2c(c1)/C(=C/Cn1cnc3cc4c(cc31)OCO4)c1ccccc1CO2	2.7 nM
O=C(O)c1ccc2c(c1)/C(=C/Cn1cnc3ccc(C(O)c4ccccc4)cc31)c1ccccc1CO2 (centres undefined)	17 nM
O=C(O)c1ccc2c(c1)/C(=C/Cn1cnc3ccc(Cl)cc31)c1ccccc1CO2	15 nM
O=C(O)c1ccc2c(c1)/C(=C/Cn1cnc3cc(C(=O)NCc4ccccc4)ccc31)c1ccccc1CO2	0.91 nM
O=C(O)c1ccc2c(c1)/C(=C\Cn1cnc3ccccc31)c1ccccc1CO2	15 nM
COc1cc(OC)c2ncn(C/C=C3\c4ccccc4COc4ccc(C(=O)O)cc43)c2c1	88 nM
COc1ccc2c(c1)ncn2C/C=C1\c2ccccc2COc2ccc(C(=O)O)cc21	3.2 nM
Cc1cc2ncn(C/C=C3\c4cc(C(=O)O)ccc4COc4ccccc43)c2cc1C	1300 nM
Cc1cc2ncn(C/C=C3\c4ccccc4COc4ccc(CC(=O)O)cc43)c2cc1C	63 nM
O=C(O)c1ccc2c(c1)/C(=C/Cn1cnc3cc(F)ccc31)c1ccccc1CO2	8.3 nM
COc1cc(OC)c2c(c1)ncn2C/C=C1\c2ccccc2COc2ccc(C(=O)O)cc21	6.1 nM
O=C(O)c1ccc2c(c1)/C(=C/Cn1cnc3cc(C(=O)O)ccc31)c1ccccc1CO2	30 nM
COc1cc2ncn(C/C=C3\c4ccccc4COc4ccc(C(=O)O)cc43)c2cc1OC	3.4 nM
O=C(O)c1ccc2c(c1)/C(=C/Cn1cnc(-c3ccccc3)c1-c1ccccc1)c1ccccc1CO2	164 nM
Cc1cccc2c1ncn2C/C=C1\c2ccccc2COc2ccc(C(=O)O)cc21	17 nM
COc1ccc2ncn(C/C=C3\c4ccccc4COc4ccc(C(=O)O)cc43)c2c1	12 nM
Cc1ccc2c(c1)ncn2C/C=C1\c2ccccc2COc2ccc(C(=O)O)cc21	15 nM
Cc1ccc2c(ncn2C/C=C2\c3ccccc3COc3ccc(C(=O)O)cc32)c1C	3.6 nM
O=C(O)c1ccc2c(c1)/C(=C/CNS(=O)(=O)c1ccccc1)c1ccccc1CO2	11 nM
Cc1ccc2ncn(C/C=C3\c4ccccc4COc4ccc(C(=O)O)cc43)c2c1	23 nM
Cc1cc2ncn(C/C=C3\c4ccccc4COc4cc(C(=O)O)ccc43)c2cc1C	1800 nM
O=C(O)c1ccc2c(c1)/C(=C/Cn1cnc3cc(C(O)c4ccccc4)ccc31)c1ccccc1CO2 (centres undefined)	6.1 nM
O=C(O)c1ccc2c(c1)/C(=C/Cn1cnc3cc4ccccc4cc31)c1ccccc1CO2	280 nM
Cc1cc2ncn(C/C=C3/c4ccccc4COc4ccc(C(=O)O)cc43)c2cc1C	64 nM
Cc1cc2ncn(C/C=C3\c4ccccc4COc4ccc(C(=O)O)cc43)c2cc1C [11-[2-(5,6-Dimethyl-benzoimidazol-1-yl)-ethylidene]-6,11-dihydro-dibenzo[b,e]oxepine-2-carboxylic acid (0.5H2O)]	2.7 nM
